Results from patent publication US20030083250A1, “Anti-tumor chemotherapy by administration of cyclophosphamide and erythropoeitin” (priority 2001, published 2003).
Entries after “also recorded” stand apart in the source; their conditions may differ.

Assays:
DS-sarcoma = assay: Growth of subcutaneous DS-sarcomas in rats (tumor volume, volume doubling time, growth delay after cyclophosphamide); assay type: in vivo, rat; settings: for volume doubling time / impact on tumor growth rate per se: tumors not treated with cyclophosphamide; for impact on tumor growth rate per se: carboplatin four days before implantation, rHuEPO 1000 IU/kg three times per week; for volume doubling time during the regrowth period: after cyclophosphamide; for growth delay following chemotherapy: at the 1.3 ml tumor volume level, cyclophosphamide 60 mg/kg i.p. Day 5
Description: (§1) Male Sprague-Dawley rats (Charles River Wiga, Sulzfeld, Germany; body weight 100 to 160 g) housed in our animal care facility were used in the study. Animals were allowed access to food and acidified water ad libitum before and throughout the investigation. All experiments had previously been approved by the regional animal ethics committee and were conducted in accordance with the German Law for Animal Protection and the UKCCCR Guidelines [United Kingdom Coordinating Committee on Cancer Research (UKCCCR) guidelines for the welfare of animals in experimental neoplasia (2 nd edit). Br. J. Cancer, (1998) 77:1-10].
Solid DS-sarcomas were induced by injecting DS-sarcoma cells (0.4 ml approximately 10^4 cells/μl) subcutaneously into the hind food dorsum. […] Tumor volumes were determined by measuring the three orthogonal diameters of the tumor and using an ellipsoid approximation with the formula: V=d1×d2×d3×π/6. From the volume growth curves the volume doubling time was calculated during exponential tumor growth.
(§2) Prolonged anemia was induced by a single injection of carboplatin (Sigma-Aldrich, Steinheim, Germany) at a dose of 50 mg/kg body weight (dissolved in isotonic saline at a concentration of 20 mg/ml) into the tail vein four days before tumor implantation.
(§3) Recombinant human erythropoietin (epoetin alpha, ERYPO 4000®; Janssen-Cilag, Neuss, Germany) in isotonic NaCl solution was administered (1000 IU/kg) three times per week over sixteen days by s.c. injection starting eleven days before tumor implantation. Control animals received equivalent volumes of the solvent (0.5 ml/ kg).
Animals treated with equivalent volumes of the solvent (isotonic saline 6 ml/kg) served as controls.
Group 1 (non-anemic): Animals received cyclophosphamide on Day 5 after tumor implantation.
Group 2 (anemic): Animals treated for four days before tumor implantation with carboplatin for anemia induction. Cyclophosphamide was administered on Day 5 after implantation.
Group 3 (anemic, rHuEPO-treated): Animals treated with rHuEPO three times per week from eleven days before tumor implantation and up until the day of cyclophosphamide application. Carboplatin (for anemia induction) was administered on Day −4 and cyclophosphamide was applied on Day 5.
Controls for all three experimental groups received equivalent volumes of the solvent instead of cyclophosphamide on Day 5 after tumor implantation.
(§4) Results are expressed as means±standard error of the mean (SEM). Differences between the groups were assessed by the two-tailed Wilcoxon test for unpaired samples. The significance level was set at α=5% for all comparisons. For characterizing the effect of chemotherapy on tumor growth, the growth delay induced by cyclophosphamide was calculated.

Male Sprague-Dawley rats = assay: Blood cell parameters (automated hematology analyzer) in rats with carboplatin-induced anemia, with or without rHuEPO; assay type: in vivo, rat; settings: for CHb (hemoglobin concentration): day of cyclophosphamide treatment (Day 5 after tumor implantation), carboplatin 50 mg/kg i.v. on Day -4, rHuEPO 1000 IU/kg s.c. three times per week
Description: as §1, §2, §3
Besides tumor growth, blood cell parameters were assessed using a multi-parameter, automated hematology analyzer (Ac-T8; Beckman-Coulter, Krefeld, Germany) whereby erythrocyte, white blood cell and platelet counts together with the mean cell volume (MCV) were measured by an impedance technique and the hemoglobin concentration by a photometric method. In addition, the analyzer uses the measured values to calculate several other parameters (e.g., hematocrit, mean corpuscular hemoglobin content [MCH] and mean corpuscular hemoglobin concentration [MCHC]). All measurements were performed using a sample of venous blood (20 μl) taken from a tail vein.
as §4

[1] = test system: FSaIIC Murine Fibrosarcoma; settings: experimental sarcomas of mice; cited from earlier work
anemic cancer patients = settings: 150 IU/kg t.i.w. vs placebo; after the first month of therapy; platinum or non-platinum chemotherapy; cited from earlier work
experimental tumors = settings: after correcting anemia; 76% in moderate anemia, 21% before; cited from earlier work
experimental tumours = settings: in vivo; cited from earlier work
[2] = test system: human ovarian cancer xenographs; settings: EPO alone (control group); cited from earlier work
[3] = day of cyclophosphamide treatment, mean ± SEM

N.N.O=C([O-])C1(C(=O)[O-])CCC1.[Pt+2] [carboplatin]
volume doubling time (DS-sarcoma): approximately 1.8 days | impact on tumor growth rate per se (DS-sarcoma): does not affect the growth of DS sarcomas; also recorded: no impact per se on the growth rate of the tumors; also recorded: no effect on the growth rate of DS-sarcomas | CHb (hemoglobin concentration) (Male Sprague-Dawley rats; mean ± SEM): 98 g/L | CHb (hemoglobin concentration) (Male Sprague-Dawley rats; mean ± SEM, listed as CARBOPLATIN): 98 ± 3 g/L | Hematocrit (Male Sprague-Dawley rats; [3]): 28 ± 1% | Mean Corpuscular Hb Concentration (MCHC) (Male Sprague-Dawley rats; [3]): 348 ± 5 g/L | Mean Corpuscular Hemoglobin (MCH) (Male Sprague-Dawley rats; [3]): 22 ± 1 pg | Mean Corpuscular Volume (MCV) (Male Sprague-Dawley rats; [3]): 63 ± 1 fL | RBC count (Male Sprague-Dawley rats; [3]): 4.5 ± 0.2 10^6/μl | mean cHb (Male Sprague-Dawley rats; nine days after a single dose of carboplatin 50 mg/kg i.v., start approximately 130 g/l): about 100 g/l | cell kill in oxygenated versus hypoxic tumor areas [1]: more pronounced cell kill

O=P1(N(CCCl)CCCl)NCCCO1 (stereo not drawn) [cyclophosphamide]
volume doubling time during the regrowth period (DS-sarcoma; anemic group): 4.0 days | volume doubling time during the regrowth period (DS-sarcoma; non-anemic group): 4.6 days | growth delay following chemotherapy (DS-sarcoma; anemic (carboplatin) group): 8.6 days | growth delay following chemotherapy (DS-sarcoma; non-anemic group): approximately 13.3 days | growth delay (DS-sarcoma; single dose 60 mg/kg i.p., stated in the methods, not curative): approximately eight to ten | cell kill in oxygenated versus hypoxic tumor areas [1]: more pronounced cell kill

N[C@@H](Cc1ccc(N(CCCl)CCCl)cc1)C(=O)O [melphalan]
cell kill in oxygenated versus hypoxic tumor areas [1]: more pronounced cell kill

rHuEPO: Recombinant human erythropoietin (epoetin alpha, ERYPO 4000; Janssen-Cilag)
effect on hematocrit and transfusion requirements (anemic cancer patients): increase hematocrit and decrease transfusion requirements | effect of reversing anemia on cytotoxicity of cyclophosphamide chemotherapy (DS-sarcoma; DS sarcomas, anemia cHb=98 g/l): significantly increases the cytotoxicity of this chemotherapy | volume doubling time during the regrowth period (DS-sarcoma; rHuEPO-treated animals): 4.3 days | growth delay following chemotherapy (DS-sarcoma; rHuEPO-treated group (carboplatin + rHuEPO)): approximately 13.3 days | volume doubling time (DS-sarcoma): approximately 1.8 days | impact on tumor growth rate per se (DS-sarcoma): no impact per se on the growth rate of the tumors; also recorded: no impact on the tumor growth per se | fraction of hypoxic pO2 values ≦2.5 mmHg (experimental tumors): 55% | effect of correction of anemia on radiosensitivity (experimental tumours): able to improve the radiosensitivity | cHb (Male Sprague-Dawley rats; continuous rHuEPO treatment in otherwise untreated rats, within one week): 153 g/L | CHb (hemoglobin concentration) (Male Sprague-Dawley rats; mean ± SEM): 137 g/L | effect on carboplatin-induced anemia at the time of chemotherapy (Male Sprague-Dawley rats; rHuEPO for approximately one week prior to carboplatin application): prevention (or reversal) of the carboplatin-induced anemia | changes in tumor growth [2]: no changes in tumor growth
